For 14 compounds, IC50, Activity and inhibition results are on record in ChEMBL document CHEMBL1759949, “In vitro cytotoxicity of melleolide antibiotics: structural and mechanistic aspects” (Bioorg Med Chem Lett, 2011).

In test [1] the test system is K562. The experiment in a line: Cytotoxicity against human K562 cells. It counts as functional, cell-based.
The subject of test [2] is HeLa. Briefly: Cytotoxicity against human HeLa cells. Type of test: functional, cell-based.
In test [3] the test system is MCF7. Briefly: Cytotoxicity against human MCF7 cells. Type of test: functional, cell-based.
Test [4] concerns Jurkat. Briefly: Cytotoxicity against human Jurkat cells. It counts as functional, cell-based.
Test [5] relates to K562. Briefly: Inhibition of protein synthesis in human K562 cells assessed as [14C]L-leucine incorporation at 3.5 uM after 120 mins. Type of test: functional. Also on record: scale not given: the % may be the effect or the level left.
The test system of test [6] is K562. The experiment in a line: Inhibition of transcription in human K562 cells at 3.5 uM after 120 mins. It counts as functional. Set-up: scale not given: the % may be the effect or the level left.
The test system of test [7] is Jurkat. Briefly: Cytotoxicity against human Jurkat cells at <=100 uM. It counts as functional, cell-based.
Test [8] has as its system MCF7. Briefly: Cytotoxicity against human MCF7 cells at <=100 uM. It counts as functional, cell-based.
For test [9], the system named is HeLa. The experiment in a line: Cytotoxicity against human HeLa cells at <=100 uM. Type of test: functional, cell-based.
Test [10] deals with K562. The experiment in a line: Cytotoxicity against human K562 cells at <=100 uM. Type of test: functional, cell-based.
In test [11] the test system is K562. The experiment in a line: Inhibition of DNA synthesis in human K562 cells assessed as [14C]thymidine incorporation at 4 uM after 120 mins. It counts as functional. Also on record: scale not given: the % may be the effect or the level left. Background: Incorporation of labelled thymidine or its analogues reports DNA synthesis.
The test system of test [12] is K562. Briefly: Inhibition of transcription in human K562 cells at 4 uM after 120 mins. It counts as functional. Set-up: scale not given: the % may be the effect or the level left.
For test [13], the system named is K562. The experiment in a line: Inhibition of DNA synthesis in human K562 cells assessed as [14C]thymidine incorporation at 0.47 uM after 120 mins. It counts as functional. Also on record: scale not given: the % may be the effect or the level left.
Test [14] relates to K562. Briefly: Inhibition of transcription in human K562 cells at 0.47 uM after 120 mins. Type of test: functional. Also on record: scale not given: the % may be the effect or the level left.
The subject of test [15] is K562. Briefly: Inhibition of protein synthesis in human K562 cells assessed as [14C]L-leucine incorporation at 0.47 uM after 120 mins. It counts as functional. Set-up: scale not given: the % may be the effect or the level left.
The test system of test [16] is K562. The experiment in a line: Inhibition of DNA synthesis in human K562 cells assessed as [14C]thymidine incorporation at 5 uM after 120 mins. Type of test: functional. Set-up: scale not given: the % may be the effect or the level left.
In test [17] the test system is K562. Briefly: Inhibition of DNA synthesis in human K562 cells assessed as [14C]thymidine incorporation at 1.25 uM after 60 mins. Also on record: scale not given: the % may be the effect or the level left. It counts as functional.
Test [18] relates to K562. The experiment in a line: Inhibition of protein synthesis in human K562 cells assessed as [14C]L-leucine incorporation at 5 uM after 60 mins. It counts as functional. Also on record: scale not given: the % may be the effect or the level left.
For test [19], the system named is K562. Briefly: Inhibition of protein synthesis in human K562 cells assessed as inhibition of [14C]L-leucine incorporation at 1.25 uM after 60 mins. Type of test: functional, cell-based.
In test [20] the test system is K562. Briefly: Inhibition of RNA synthesis in human K562 cells assessed as inhibition of [14C]uridine incorporation upto 5 uM after 120 mins. It counts as functional, cell-based.
In test [21] the test system is K562. Briefly: Inhibition of DNA synthesis in human K562 cells assessed as [14C]thymidine incorporation at 5 uM after 60 mins. Set-up: scale not given: the % may be the effect or the level left. Type of test: functional.
Test [22] has as its system K562. The experiment in a line: Inhibition of protein synthesis in human K562 cells assessed as [14C]L-leucine incorporation at 1.25 uM after 120 mins. Type of test: functional. Set-up: scale not given: the % may be the effect or the level left.
The subject of test [23] is K562. The experiment in a line: Inhibition of DNA synthesis in human K562 cells assessed as [14C]thymidine incorporation at 1.25 uM after 120 mins. Type of test: functional. Set-up: scale not given: the % may be the effect or the level left.
For test [24], the system named is K562. The experiment in a line: Inhibition of protein synthesis in human K562 cells assessed as [14C]L-leucine incorporation at 5 uM after 120 mins. It counts as functional. Also on record: scale not given: the % may be the effect or the level left.
In test [25] the test system is K562. Briefly: Inhibition of cellular respiration in human K562 cells at 1.25 to 5 uM. Type of test: functional, cell-based.

The structures appear in SMILES notation. The source made the active and inactive calls. The rule behind the calls is not given here. Starred links: 1 amine or outer side, 2 acyl side, 3 side chain; linkers in the order of their positions; H or OH if unused. Positions of bridges follow the written chain, without caps; N, C: chain ends. Non-standard residues stand in square brackets, D forms with d. Residues, ends and D or L forms follow the SMILES beside them. Chains are numbered I, II in the order given. Actinocin(1to9) = Cc1c2oc3c(C)ccc(C(=O)[*:2])c3nc-2c(C(=O)[*:1])c(N)c1=O; NMeV = CN[C@H](C(=O)O)C(C)C; Sar = CNCC(=O)O

As for `Cc1c(Cl)c(O)cc(O)c1C(=O)O[C@@H]1C[C@]2(C)[C@H]3CC(C)(C)C[C@@]3(O)C=C(CO)[C@]12O`, the IC50 (commonly the midpoint of a concentration-inhibition curve) with K562 [1] was greater than 100 µM; in the test with HeLa [2], greater than 100 µM; in the test with MCF7 [3] it was greater than 100 µM; with Jurkat [4], 46.6 µM.
For `C[C@@H]1C[C@@H]([C@H](O)CC2CC(=O)NC(=O)C2)C(=O)[C@@H](C)C1` [CYCLOHEXIMIDE], the Activity with K562 [5] is 26%; in the test with K562 [6], 99%.
`COc1cc(C)c(C(=O)O[C@@H]2C[C@]3(C)[C@H]4CC(C)(C)C[C@H]4C=C(C=O)[C@]23O)c(O)c1` [ARMILLARIN]: the IC50 was found to be 9.9 µM with K562 [1], 16.7 µM in the test on HeLa [2] and 11.6 µM in the test on MCF7 [3].
As for `Cc1cc(O)cc(O)c1C(=O)O[C@@H]1C[C@]2(C)[C@H]3CC(C)(C)C[C@@]3(O)C=C(CO)[C@]12O`, the Activity result in the test with Jurkat [7], in the test with MCF7 [8], with HeLa [9] and in the test on K562 [10] was “Not toxic” throughout.
`COc1cc(O)c(C(=O)O[C@@H]2C[C@]3(C)[C@H]4[C@@H](O)C(C)(C)C[C@@]4(O)C=C(CO)[C@]23O)c(C)c1Cl`: the Activity entry in the test on Jurkat [7], with MCF7 [8], in the test on HeLa [9] and in the test with K562 [10] was “Not toxic” in each case.
As to `COc1cc(O)c(C(=O)O[C@@H]2C[C@]3(C)[C@H]4CC(C)(C)C[C@H]4[C@H](O)[C@@H](CO)[C@]23O)c(C)c1Cl`, the IC50 is 25 µM in the test with K562 [1], 35.8 µM in the test with HeLa [2], 26.5 µM with MCF7 [3] and 13.3 µM in the test on Jurkat [4].
With `Cc1c2oc3c(C)ccc(C(=O)N[C@@H]4C(=O)N[C@H](C(C)C)C(=O)N5CCC[C@H]5C(=O)N(C)CC(=O)N(C)[C@@H](C(C)C)C(=O)O[C@@H]4C)c3nc-2c(C(=O)N[C@@H]2C(=O)N[C@H](C(C)C)C(=O)N3CCC[C@H]3C(=O)N(C)CC(=O)N(C)[C@@H](C(C)C)C(=O)O[C@@H]2C)c(N)c1=O` [DACTINOMYCIN] (I: T[dV]P[Sar][NMeV] / II: T[dV]P[Sar][NMeV]; ester I:1-I:C, II:1-II:C; linker I:N-II:N via Actinocin(1to9)), the figures for the Activity in the test on K562 [11] and in the test with K562 [12] were 58% and 2%, respectively.
On to `COc1cc(O)c(C(=O)O[C@@H]2C[C@]3(C)[C@H]4CC(C)(C)C[C@H]4C=C(CO)[C@]23O)c(C)c1Cl`, for which the IC50 was found to be 38.9 µM in the test with K562 [1], 40 µM in the test with HeLa [2], 21.3 µM with MCF7 [3] and 10.4 µM in the test on Jurkat [4].
With `COc1cccc2c1C(=O)c1c(O)c3c(c(O)c1C2=O)C[C@@](O)(C(=O)CO)C[C@@H]3O[C@H]1C[C@H](N)[C@H](O)[C@H](C)O1` [DOXORUBICIN], the Activity in the test on K562 [13] stood at 46%; in the test on K562 [14], 79%; in the test on K562 [15], 89%.
As to `COc1cc(O)c(C(=O)OCC2=C[C@]3(O)CC(C)(C)[C@H](O)[C@@H]3[C@@]3(C)C[C@@H](O)[C@@]23O)c(C)c1Cl`, the Activity entry in the test on Jurkat [7], in the test with MCF7 [8], with HeLa [9] and in the test with K562 [10] was “Not toxic” each time.
As to `COc1cc(O)c(C(=O)O[C@@H]2C[C@]3(C)[C@H]4CC(C)(C)C[C@H]4C=C(C=O)[C@]23O)c(C)c1Cl` [ARMILLARIDIN], the IC50 is 8.9 µM with K562 [1], 9.2 µM in the test with HeLa [2], 7.8 µM in the test on MCF7 [3] and 3 µM with Jurkat [4].
Take `Cc1cc(O)cc(O)c1C(=O)O[C@@H]1C[C@@]2(C)C1=C(C=O)[C@@H](O)[C@@H]1CC(C)(C)C[C@@H]12` [DEHYDROARMILLYLORSELLINATE]: the IC50 with K562 [1] is 5 µM; in the test with HeLa [2] it was 15.2 µM; in the test on MCF7 [3], 8 µM; in the test on Jurkat [4], 16.9 µM. Also, the Activity in the test with K562 [16] amounted to 35%; with K562 [17], 90%; with K562 [18], 76%; with K562 [21], 70%; in the test on K562 [22], 96%; with K562 [23], 71%. Besides, the Activity in the test on K562 [24] is reported as 35%. Also, the inhibition result in the test on K562 [19], in the test with K562 [20] and with K562 [25] was “inactive” in each case.
As to `COc1cc(O)c(C(=O)O[C@@H]2C[C@]3(C)[C@H]4CC(C)(CO)C[C@@]4(O)C=C(CO)[C@]23O)c(C)c1Cl` (stereo not given in full), the Activity entry in the test on Jurkat [7], in the test with MCF7 [8], in the test with HeLa [9] and in the test with K562 [10] was “Not toxic” each time.
`COc1cc(O)c(C(=O)O[C@@H]2C[C@]3(C)[C@H]4CC(C)(C)C[C@H]4C=C(C=O)[C@]23OC)c(C)c1Cl`: the half-maximal inhibitory concentration (IC50) in the test with K562 [1] came to 20.6 µM; in the test on HeLa [2] it was 18.8 µM; with MCF7 [3] it was 6.7 µM; in the test with Jurkat [4], 4.1 µM.
